Measured values as given in US20010044447A1 (priority 1999, published 2001).

What was measured:
[1] = test system: motoneurons (trophic activity produced by spinal astrocytes); conditions: H. PELUFFO et al., Neuroscience letters, 228, 207-211 (1997); cited from earlier work
[2] = test system: motoneurons (trophic activity produced by spinal astrocytes); assay type: cell-based, Wistar rats; conditions: each product 0.1 μM; astrocyte monolayers exposed 24 hours, conditioned medium taken up 24 hours later; percentage of the number of motoneurons in cultures maintained with BDNF; vehicle alone 44 ± 1.41
Description: The motoneurons are plated, at a density of 2500 cells per 35 mm plate, on culture plates previously coated with laminin/ornithine according to the method of A. G. ESTEVEZ et al., J. Neurosci., 18 (3), 923-931 (1998). The cultures are then maintained in L15 medium (GIBCO BRL) containing sodium bicarbonate (22 mM), conalbumin (0.1 mg/ml), putrescine (0.1 mM), insulin (5 μg/ml), sodium selenite (31 nM), glucose (20 mM), progesterone (21 nM), penicillin (100 IU/ml) and streptomycin (100 μg/ml).
The motoneurons thus obtained are composed of large (25-30 μM) and homogeneous neurones with long branched neurites. More than 70% of the cells are immunoreactive for the p75 neurotrophin receptor and the markers Islet 1/2 for the spinal motoneurons. About 70% of the motoneurons die by apoptosis 24 hours after the plating if the culture is carried out in the absence of a trophic factor. […]
The monolayers of astrocytes show a purity of more than 98% determined by immunoreactivity for the glial fibrillary acidic protein (GFAP). […]
The number of motoneurons is evaluated by counting the labelled cells in a surface area of 0.4-1 cm^2 under a microscope with a 200 times magnification.

Compound	Production, by the astrocytes, of trophic activity for the motoneurons [1]	Motoneuronal survival in % [2] [%]
Nc1nc2ccc(OC(F)(F)F)cc2s1 [riluzole]	stimulated	–
CO[C@]12C[C@@H](CO)CN(C)[C@@H]1Cc1cn(C)c3cccc2c13 [lumilysergol, 1,6-dimethyl-8β-hydroxymethyl-10α-methoxyergoline]	–	57.4 ± 3.53
CO[C@]12C[C@@H](COC(=O)c3cncc(Br)c3)CN(C)[C@@H]1Cc1cn(C)c3cccc2c13 [nicergoline, (8 p)-10-methoxy-1,6-dimethylergoline-8-methanol-5-bromonicotinate]	–	44.5 ± 3.53
